Measured values taken from PubChem BioAssay (NCI).
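Cultured in 96-well plates, cells were exposed to test compound for 48 hours across five concentrations. TGI: total growth inhibition.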

Assays:
Assay in all cases: inhibition of tumour cell growth, NCI panel, 48 h
UO-31 renal = test system: UO-31 renal
COLO 205 colon = test system: COLO 205 colon
SK-MEL-5 melanoma = test system: SK-MEL-5 melanoma
DU-145 prostate = test system: DU-145 prostate
MALME-3M melanoma = test system: MALME-3M melanoma
MOLT-4 leukemia = test system: MOLT-4 leukemia
LOX IMVI melanoma = test system: LOX IMVI melanoma
PC-3 prostate = test system: PC-3 prostate
SF-295 CNS = test system: SF-295 CNS
NCI/ADR-RES ovarian = test system: NCI/ADR-RES ovarian
MDA-N = test system: MDA-N
MCF7 breast = test system: MCF7 breast
SNB-19 CNS = test system: SNB-19 CNS
HCT-15 colon = test system: HCT-15 colon
SK-MEL-2 melanoma = test system: SK-MEL-2 melanoma
HL-60(TB) leukemia = test system: HL-60(TB) leukemia
ACHN renal = test system: ACHN renal
NCI-H522 lung = test system: NCI-H522 lung

Compound | TGI (UO-31 renal) [µM] | TGI (COLO 205 colon) [µM] | TGI (SK-MEL-5 melanoma) [µM] | TGI (DU-145 prostate) [µM] | TGI (MALME-3M melanoma) [µM] | TGI (MOLT-4 leukemia) [µM] | TGI (LOX IMVI melanoma) [µM] | TGI (PC-3 prostate) [µM] | TGI (SF-295 CNS) [µM] | TGI (NCI/ADR-RES ovarian) [µM] | TGI (MDA-N) [µM] | TGI (MCF7 breast) [µM] | TGI (SNB-19 CNS) [µM] | TGI (HCT-15 colon) [µM] | TGI (SK-MEL-2 melanoma) [µM] | TGI (HL-60(TB) leukemia) [µM] | TGI (ACHN renal) [µM] | TGI (NCI-H522 lung) [µM]
CCOC(=O)CCC(NC(=O)c1ccc(Nc2nc3ccccc3nc2-c2cccs2)cc1)C(=O)OCC (stereo unspecified) | > 100 | > 100 | > 100 | > 100 | > 100 | > 100 | > 100 | > 100 | > 100 | > 100 | > 100 | > 100 | > 100 | > 100 | 94.5 | > 100 | > 100 | –
COc1ccc(O)c(C=NCCCN=Cc2cc(OC)ccc2O)c1 | > 100 | – | – | 80.5 | 62.7 | > 100 | – | > 100 | 51.1 | – | > 100 | 56.9 | > 100 | 93.1 | > 100 | 28.5 | 74.4 | > 100
O=C(O)CC/C(=N\Nc1nsc2ccccc12)c1ccc(Cl)cc1 | > 67.1 | > 100 | > 31.6 | > 100 | > 100 | 73.5 | 25.7 | > 100 | > 100 | – | > 100 | > 100 | > 100 | 53.5 | > 100 | 59.9 | > 80.6 | > 100
O=C(/C=C/c1ccco1)CC(=O)/C=C/c1ccco1 | 20.2 | – | 18.1 | – | 20.9 | 23 | 13.8 | – | – | 21.7 | 15 | 19.2 | 31.4 | 20.2 | 22.2 | 11.7 | 21 | 14.1
N#CCCN(CCC#N)c1ccc(/C=C2\N=C(c3ccccc3)N(c3ccccn3)C2=O)cc1 | > 100 | > 100 | > 100 | > 100 | > 100 | > 100 | > 100 | > 100 | > 100 | > 100 | > 100 | > 100 | > 100 | > 100 | > 100 | > 100 | > 100 | –
CCCCn1c2c(n(CCCC)c1=S)-c1c(n(CCCC)c(=S)n1CCCC)SSSS2 | 2.64 | 1.68 | 8.95 | > 35.3 | 2.03 | > 36.2 | 12.1 | 7.24 | > 100 | 71.5 | 23.2 | > 100 | > 100 | 4.45 | 6.8 | – | 7 | 0.274
CC1CCC2C(C(=O)O[C@H]3C4CCO[C@@H](OC5OC(CO)C(O)C(O)C5O)C4[C@@]4(CO)O[C@@H]34)=CO[C@@H](OC3OC(CO)C(O)C(O)C3O)C12 (stereo partly specified) | > 10 | – | > 10 | > 10 | > 10 | > 10 | > 10 | > 10 | > 10 | – | > 10 | > 10 | > 10 | > 10 | > 10 | > 10 | > 10 | –
